± gives the expanded uncertainty stated by the source.
Assay: molar heat capacity at constant pressure
Details: 298.15 K; 101.33 kPa; Liquid; Small sample (50 mg) DSC

Row | Structure (SMILES) | molar heat capacity at constant pressure [J/K/mol]
1 | CCCCCC[C@@H](O)C/C=C\CCCCCCCC(=O)O [[R]-12-hydroxy-cis-9-octadecenoic acid] | 626.77 ± 63
2 | CCCCCC[C@@H](O)CC=CCCCCCCCC(=O)OC [[R]-methyl 12-hydroxy-9-octadecenoate] | 696.53 ± 70
